In general, EC50 refers to the concentration at which the effect is half-maximal.

For the assay, the system named is HT-22. Nature of the assay: Neuroprotective activity against glutamate-induced cell death in mouse HT-22 cells assessed as increase in cell viability after 24 hrs by EZ-Cytox assay. The assay is classed as functional, cell-based. The following applies: HT-22, 24 h.
As for `COc1cc(/C=C/C(=O)NC[C@H](O)c2ccc(O)cc2)ccc1O`, the EC50 came to 32.3 µM. On to `OC[C@H]1O[C@@H](OCc2ccccc2)[C@H](O)[C@@H](O)[C@@H]1O`, for which the EC50 is over 100 µM. With `O=C(O)/C=C\c1ccc(O)cc1`, the EC50 is over 100 µM. On to `O=C(/C=C/c1ccc(O)c(O)c1)O[C@@H]1C[C@](O)(C(=O)O)C[C@@H](OC(=O)/C=C/c2ccc(O)c(O)c2)[C@H]1O`, for which the EC50 was over 100 µM.

As for `COc1c(O)c(OC)c2c(=O)cc(-c3ccccc3)oc2c1OC`, the EC50 is 43.6 µM.

With `COc1ccc(-c2cc(=O)c3c(O)cc(O[C@@H]4O[C@H](CO[C@@H]5O[C@@H](C)[C@H](O)[C@@H](O)[C@H]5O)[C@@H](O)[C@H](O)[C@H]4O[C@@H]4O[C@H](COC(C)=O)[C@@H](O)[C@H](O)[C@H]4O)cc3o2)cc1`, the EC50 was over 100 µM. `COc1ccc(-c2cc(=O)c3c(O)cc(O[C@@H]4O[C@H](CO[C@@H]5O[C@@H](C)[C@H](OC(C)=O)[C@@H](O)[C@H]5O)[C@@H](O)[C@H](O)[C@H]4O)cc3o2)cc1`: the EC50 was over 100 µM. In the case of `CC(C)=CCC/C(C)=C\CO[C@@H]1O[C@H](CO)[C@@H](O)[C@H](O)[C@H]1O` it was over 100 µM; in that of `O=C(O)/C=C/C=C/c1ccc(O)c(O[C@@H]2O[C@H](COC(=O)/C=C/c3ccc(O)c(O)c3)[C@@H](O)[C@H](O)[C@H]2O)c1`, 56.2 µM. The figure for `O=C1C[C@@H](c2ccc(O)c(O)c2)Oc2c1ccc(O)c2O` is 6.2 µM.

For the compound `O=C1/C=C/c2ccc(O)c(c2)O[C@@H]2O[C@H](COC(=O)/C=C/c3cc(O)c(O)cc3C1)[C@@H](O)[C@H](O)[C@H]2O`, the EC50 was found to be 8.3 µM. Consider `O=C(/C=C/c1ccc(O)cc1)c1ccc(O[C@@H]2O[C@H](CO)[C@@H](O)[C@H](O)[C@H]2O)cc1O`, for which the EC50 was 72 µM. Take `O=C(/C=C/c1ccc(O)c(O)c1)O[C@H]1CC[C@@H](O)[C@H]1O`: the EC50 was over 100 µM.

Turning to `COc1ccc(/C=C/C(=O)c2ccc(O[C@@H]3O[C@H](CO)[C@@H](O)[C@H](O)[C@H]3O)cc2O)cc1O`, the EC50 was determined as 63.4 µM. As to `COc1ccc(-c2cc(=O)c3c(O)cc(O[C@@H]4O[C@H](CO[C@@H]5O[C@@H](C)[C@H](OC(C)=O)[C@@H](O)[C@H]5O)[C@@H](O)[C@H](O)[C@H]4O[C@@H]4O[C@H](COC(C)=O)[C@@H](O)[C@H](OC(C)=O)[C@H]4O)cc3o2)cc1`, the EC50 is over 100 µM.

For `COc1ccc(-c2cc(=O)c3c(O)cc(O[C@@H]4O[C@H](CO[C@@H]5O[C@@H](C)[C@H](OC(C)=O)[C@@H](O)[C@H]5O)[C@@H](O)[C@H](O)[C@H]4O[C@@H]4O[C@H](COC(C)=O)[C@@H](O)[C@H](O)[C@H]4O)cc3o2)cc1`, the concentration giving a half-maximal response (EC50) is over 100 µM. Regarding `COc1ccc(/C=C/C(=O)c2ccc(O[C@@H]3O[C@H](CO)[C@@H](O)[C@H](O)[C@H]3O)c(O)c2O)cc1O`, the concentration giving a half-maximal response (EC50) was 4.7 µM. On to `COc1ccc(/C=C/C(=O)c2ccc(O)cc2O)cc1O`, for which the EC50 was found to be 35.2 µM.

Take `COc1ccc(-c2cc(=O)c3c(O)cc(O[C@@H]4O[C@H](CO[C@@H]5O[C@@H](C)[C@H](OC(C)=O)[C@@H](O)[C@H]5O)[C@@H](O)[C@H](O)[C@H]4O[C@@H]4O[C@H](CO)[C@@H](O)[C@H](O)[C@H]4O)cc3o2)cc1`: the EC50 turned out to be 69.7 µM.

Take `CC(=O)/C=C/c1ccc(O)c(O[C@@H]2O[C@H](COC(=O)/C=C/c3ccc(O)c(O)c3)[C@@H](O)[C@H](O)[C@H]2O)c1`: the EC50 worked out at 62.2 µM.

Consider `COc1ccc(-c2cc(=O)c3c(O)cc(O[C@@H]4O[C@H](CO[C@@H]5O[C@@H](C)[C@H](O)[C@@H](OC(C)=O)[C@H]5O)[C@@H](O)[C@H](O)[C@H]4O[C@@H]4O[C@H](COC(C)=O)[C@@H](O)[C@H](O)[C@H]4O)cc3o2)cc1`, for which the EC50 was over 100 µM. As for `CC(=O)/C=C/c1ccc(O)c(O)c1`, the EC50 is 1.5 µM. The figure for `O=Cc1ccc(O)cc1` [4-HYDROXYBENZALDEHYDE] is 33.2 µM. For the compound `COc1ccc(-c2cc(=O)c3c(O)cc(O[C@@H]4O[C@H](CO[C@@H]5O[C@@H](C)[C@H](O)[C@@H](O)[C@H]5O)[C@@H](O)[C@H](O)[C@H]4O)cc3o2)cc1` [ACACIIN], the EC50 is 69.3 µM. `CC(=O)N[C@@H](CS)C(=O)O` [ACETYLCYSTEINE]: the EC50 was found to be 700 µM. On to `O=c1cc(-c2ccc(O)cc2)oc2cc(O)cc(O)c12` [APIGENIN], for which the concentration for a half-maximal effect (EC50) was over 100 µM. The figure for `O=c1cc(-c2ccc(O)cc2)oc2cc(O[C@@H]3O[C@H](CO)[C@@H](O)[C@H](O)[C@H]3O)cc(O)c12` [APIGETRIN] is over 100 µM.

Regarding `O=C(O)/C=C/c1ccc(O)c(O)c1` [CAFFEIC ACID], the EC50 is 77.1 µM. As for `O=C(O)/C=C/c1ccc(O)cc1` [COUMARIC ACID], the EC50 stood at 6.4 µM.

`COc1ccc(-c2cc(=O)c3c(O)cc(O)cc3o2)cc1O` [DIOSMETIN]: the EC50 is 59.7 µM. Regarding `CCOC(=O)/C=C/c1ccc(O)c(O)c1` [ETHYL CAFFEATE], the EC50 came out at 1.9 µM. `COc1cc2oc(-c3ccccc3)cc(=O)c2c(O)c1OC` [MOSLOFLAVONE]: the EC50 is 23.4 µM. Consider `O=C(O)c1ccc(O)cc1` [PARABEN], for which the EC50 is over 100 µM. Turning to `O=C(O)c1ccc(O)c(O)c1` [PROTOCATECHUIC ACID], the 50% effective concentration (EC50) is over 100 µM.

As for `O=C(/C=C/c1ccc(O)c(O)c1)O[C@H](Cc1ccc(O)c(O)c1)C(=O)O` [ROSMARINIC ACID], the EC50 was determined as 86 µM. In the case of `O=C1/C(=C/c2ccc(O)c(O)c2)Oc2cc(O)ccc21` [SULFURETIN], the 50% effective concentration (EC50) came to 3.5 µM. The figure for `COc1cc(C(=O)O)ccc1O` [VANILLIC ACID] is 27.8 µM.

These data come from ChEMBL document CHEMBL4699527, “Chemical Constituents from the Aerial Parts of Elsholtzia ciliata and Their Protective Activities on Glutamate-Induced HT22 Cell Death” (J Nat Prod, 2020).
